# In BindingDB's records for doi:10.1016/s0028-3908(97)00039-7 (Roche Bioscience, 1997):
# Several values for one entry are separate records, joined by “and”; a condition that tells them apart may be missing. Equal entries are not always repeated.
# Target: 5-hydroxytryptamine receptor 4 (Rattus norvegicus, UniProt Q62758)
# Sequence (Q62758 whole entry): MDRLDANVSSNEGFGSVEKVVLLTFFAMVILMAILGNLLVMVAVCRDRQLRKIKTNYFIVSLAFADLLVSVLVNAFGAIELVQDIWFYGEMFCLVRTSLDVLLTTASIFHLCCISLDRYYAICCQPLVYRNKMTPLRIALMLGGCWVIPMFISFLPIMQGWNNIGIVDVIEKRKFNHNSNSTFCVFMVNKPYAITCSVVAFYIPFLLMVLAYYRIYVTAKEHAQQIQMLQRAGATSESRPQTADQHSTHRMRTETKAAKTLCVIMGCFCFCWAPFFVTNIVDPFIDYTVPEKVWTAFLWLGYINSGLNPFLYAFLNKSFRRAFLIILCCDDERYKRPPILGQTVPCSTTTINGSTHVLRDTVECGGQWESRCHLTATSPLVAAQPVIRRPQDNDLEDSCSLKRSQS
row,Structure (SMILES),Ki
1,COc1ccc2[nH]c(=O)n(C(=O)OC3CC4CCC(C3)N4C)c2c1 (stereo not drawn) [DAU 6285],79.4 nM and 63.1 nM and 158 nM
2,CC(C)n1c(=O)n(C(=O)NC2CC3CCC(C2)N3C)c2ccccc21 (stereo not drawn) [BIMU 8],15.8 nM and 50.1 nM and 79.4 nM
3,CN1C2CCC1CC(OC(=O)c1c[nH]c3ccccc13)C2 (stereo not drawn),100 nM and 251 nM and 501 nM
4,NCCc1c[nH]c2ccc(C(N)=O)cc12 [[3H]-5-carboxamidotryptamine],3160 nM and 5010 nM

# The remaining lines, values ahead:
row,Ki,Structure (SMILES)
1,19.9 nM and 25.1 nM,CCN(CC)CCOC(=O)c1cc(Cl)c(N)cc1OC [SDZ-205557]
2,2.51 nM and 1.25 nM,COc1cc(N)c(Cl)cc1C(=O)OCC1CCN(CCc2ccc3c(c2)OCCO3)CC1 [RS 57639]
3,3.16 nM and 1.99 nM and 3.98 nM,Cn1cc(C(=O)OCC2CCN(CCNS(C)(=O)=O)CC2)c2ccccc21 [GR 113808]
4,1.25 nM and 0.39 nM and 0.31 nM,CCCCN1CCC(COC(=O)c2cc(Cl)c(N)c3c2OCCO3)CC1 [CAS_121881]
